Experimental data: US20110053897A1 (IRM LLC, priority 2009, published 2011)

Target: T1, Syk kinase (Homo sapiens, UniProt P43405)
T1 construct: purchased
Assay: Syk kinase inhibition, Caliper LabChip off-chip mobility-shift kinase assay
Type: biochemical
Settings: Caliper LabChip assay; read-out: Syk Enzyme IC50
Outline: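 Purified Syk pre-incubated 15 min with compound in 100 mM HEPES pH 7.5, 1 mM DTT, 10 mM MgCl2 or MnCl2, 0.002% Brij-35, then 1.5 μM fluorescein peptide and ATP at apparent KM added; 1–1.5 h at room temperature, 4% DMSO, EDTA stop. Microfluidic mobility-shift product/substrate conversion gave % inhibition; IC50 from 12-point series (10–0.00003 μM) by 4-parameter fit.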

| IC50 [nM] | SMILES |
| --- | --- |
| 328 | CC(C)(C)Nc1nc(Nc2ccc(F)cn2)cc2ccn(CCO)c(=O)c12 [compound 696] |
| 208 | CC(C)(C)Nc1nc(Nc2ccc(C#N)cn2)cc2ccn(CCO)c(=O)c12 [compound 697] |
| 131 | CC(C)(C)Nc1nc(Nc2cc(C(C)(C)O)ccn2)cc2ccn(CCO)c(=O)c12 [compound 698, 8-(tert-butylamino)-2-(2-hydroxyethyl)-6-(4-(2-hydroxypropan-2-yl)pyridin-2-ylamino)-2,7-naphthyridin-1(2H)-one] |
| 99 | CC(C)(C)Nc1nc(Nc2cc(S(C)(=O)=O)ccn2)cc2ccn(CCO)c(=O)c12 [compound 699] |
| 12 | CC(O)c1ccnc(Nc2cc3ccn(CCO)c(=O)c3c(NC(C)(C)C)n2)c1 (stereo not shown) [compound 700] |
| 69 | CCn1ccc2cc(Nc3cc(C(C)(C)O)ccn3)nc(NC(C)(C)CO)c2c1=O [compound 701] |
| 85 | CCn1ccc2cc(Nc3cc(C(C)(C)O)ccn3)nc(NC3(C)CCC3)c2c1=O [compound 702] |
| 85 | CCn1ccc2cc(Nc3cc(C(C)(C)O)ccn3)nc(NC3(CO)CCC3)c2c1=O [compound 703] |
| 45 | CC1(Nc2nc(Nc3cc(C(C)(C)O)ccn3)cc3ccn(CCO)c(=O)c23)CCC1 [compound 704] |
| 14 | CC(C)Nc1nc(Nc2cc(C(C)(C)O)ccn2)cc2ccn(CCO)c(=O)c12 [compound 705] |
| 55 | CC(C)n1ccc2cc(Nc3cc(C(C)(C)O)ccn3)nc(N[C@H]3CC[C@@H](O)CC3)c2c1=O [compound 706] |
| 59 | CC(C)(C)Nc1nc(Nc2cc(CN)ccn2)cc2ccn(CCO)c(=O)c12 [compound 707] |
| 595 | CCC(O)(CC)c1ccnc(Nc2cc3ccn(CCO)c(=O)c3c(NC(C)(C)C)n2)c1 [compound 708] |
| 11 | COCc1ccnc(Nc2cc3ccn(CCO)c(=O)c3c(NC(C)(C)C)n2)c1 [compound 709] |
| 37 | CCC(O)c1ccnc(Nc2cc3ccn(CCO)c(=O)c3c(NC(C)(C)C)n2)c1 (stereo not shown) [compound 710] |
| 197 | CC(C)(C)Nc1nc(Nc2cc(C(C)(C)N)ccn2)cc2ccn(CCO)c(=O)c12 [compound 711, 6-(4-(2-aminopropan-2-yl)pyridin-2-ylamino)-8-(tert-butylamino)-2-(2-hydroxyethyl)-2,7-naphthyridin-1(2H)-one] |
| 53 | CC(N)c1ccnc(Nc2cc3ccn(CCO)c(=O)c3c(NC(C)(C)C)n2)c1 (stereo not shown) [compound 712, 6-(4-(1-aminoethyl)pyridin-2-ylamino)-8-(tert-butylamino)-2-(2-hydroxyethyl)-2,7-naphthyridin-1(2H)-one] |
| 3 | C[C@@H](O)c1ccnc(Nc2cc3ccn(CCO)c(=O)c3c(NC(C)(C)C)n2)c1 [compound 713] |
| 13 | C[C@H](O)c1ccnc(Nc2cc3ccn(CCO)c(=O)c3c(NC(C)(C)C)n2)c1 [compound 714] |
| 679 | CC(O)c1ccnc(Nc2cc3ccn(CCO)c(=O)c3c(NC(C)(C)C)n2)n1 (stereo not shown) [compound 715] |
| 35 | CC(C)(C)Nc1nc(Nc2cc(C(C)(C)O)ncn2)cc2ccn(CCO)c(=O)c12 [compound 716] |
| 18 | CC(C)(C)Nc1nc(Nc2cc(C(C)(C)O)c(F)cn2)cc2ccn(CCO)c(=O)c12 [compound 717] |
| 11 | CC(O)c1ccnc(Nc2cc3ccn(CCO)c(=O)c3c(NC3(C)CCC3)n2)c1 (stereo not shown) [compound 718] |
| 75 | CC(C)(C)Nc1nc(-c2cnc(N)c(CO)c2)cc2ccn(CCO)c(=O)c12 [compound 720] |
| 18 | CC(O)c1ccnc(Nc2cc3ccn(CC(N)=O)c(=O)c3c(NC3(C)CCC3)n2)c1 (stereo not shown) [compound 721] |

| IC50 [nM] | SMILES |
| --- | --- |
| 155 | CC1(Nc2nc(Nc3cc(C(C)(C)O)ccn3)cc3ccn(CC(N)=O)c(=O)c23)CCC1 [compound 722] |
| 48 | CC(O)c1ccnc(Nc2cc3ccn(CC(N)=O)c(=O)c3c(NC3(C)CC3)n2)c1 (stereo not shown) [compound 723] |
| 203 | CC1(Nc2nc(Nc3cc(C(C)(C)O)ccn3)cc3ccn(CC(N)=O)c(=O)c23)CC1 [compound 724] |
| 31 | CC(O)c1ccnc(Nc2cc3ccn(CC(N)=O)c(=O)c3c(NC(C)(C)C)n2)c1 (stereo not shown) [compound 725] |
| 108 | CC(C)(C)Nc1nc(Nc2cc(C(C)(C)O)ccn2)cc2ccn(CC(N)=O)c(=O)c12 [compound 726] |
| 30 | CC(O)c1cc(Nc2cc3ccn(CCO)c(=O)c3c(NC(C)(C)C)n2)ncn1 (stereo not shown) [compound 727] |
| 283 | CC(C)(C)Nc1nc(Nc2cc(C(C)(C)O)c(Cl)cn2)cc2ccn(CCO)c(=O)c12 [compound 728] |
| 31 | CC1(Nc2nc(Nc3cc(C(C)(C)O)ncn3)cc3ccn(CC(O)CO)c(=O)c23)CC1 (stereo not shown) [compound 729] |
| 42 | CC(C)(C)Nc1nc(Nc2cc(C(C)(C)O)ncn2)cc2ccn(CC(O)CO)c(=O)c12 (stereo not shown) [compound 730] |
| 109 | CC(C)(O)Cn1ccc2cc(Nc3cc(C(C)(C)O)ncn3)nc(NC(C)(C)C)c2c1=O [compound 731] |
| 35 | CC1(Nc2nc(Nc3cc(C(C)(C)O)ncn3)cc3ccn(CC(O)CO)c(=O)c23)CCC1 (stereo not shown) [compound 732] |
| 92 | CC(C)(O)Cn1ccc2cc(Nc3cc(C(C)(C)O)ncn3)nc(NC3(C)CCC3)c2c1=O [compound 733] |
| 50 | COc1cc(Nc2cc3ccn(CCO)c(=O)c3c(NC(C)(C)C)n2)ncn1 [compound 735] |
| 90 | CC(C)(C)Nc1nc(Nc2ccncn2)cc2ccn(CCO)c(=O)c12 [compound 736] |
| 20 | CC(C)(C)Nc1nc(-c2cnc(N)nc2)cc2ccn(CCS(C)(=O)=O)c(=O)c12 [compound 737] |
| 9 | CC(C)(C)Nc1nc(Nc2cnccn2)cc2ccn(CCS(C)(=O)=O)c(=O)c12 [compound 738, 8-(tert-butylamino)-2-(2-(methylsulfonyl)ethyl)-6-(pyrazin-2-ylamino)-2,7-naphthyridin-1(2H)-one] |
| 35 | CC(C)(C)Nc1nc(Nc2cc(C(C)(C)O)ncn2)cc2ccn(CCS(C)(=O)=O)c(=O)c12 [compound 739] |
| 54 | CC(C)(C)Nc1nc(Nc2cc(C(C)(C)O)ncn2)cc2ccn(C[C@H](O)CO)c(=O)c12 [compound 740] |
| 22.2 | CC(C)(C)Nc1nc(Nc2cc(C(C)(C)O)ncn2)cc2ccn(C(CO)CO)c(=O)c12 [compound 741] |
| 34 | N#CCn1ccc2cc(-c3cnc(N)nc3)nc(NC3CCOCC3)c2c1=O [compound 742] |
| 287 | CCn1ccc2cc(-c3cnc(N)nc3)nc(N)c2c1=O [compound 743, 8-amino-6-(2-aminopyrimidin-5-yl)-2-ethyl-2,7-naphthyridin-1(2H)-one] |
| 202 | CCn1ccc2cc(-c3cnc(N)nc3)nc(NS(C)(=O)=O)c2c1=O [compound 744, N-(3-(2-Aminopyrimidin-5-yl)-7-ethyl-8-oxo-7,8-dihydro-2,7-naphthyridin-1-yl)methane sulfonamide] |
| 69 | CCn1ccc2cc(Nc3cnccn3)nc(NS(C)(=O)=O)c2c1=O [compound 745] |
| 44 | NC(=O)Cn1ccc2cc(-c3cnc(N)nc3)nc(N[C@H]3C[C@@H](CO)C3)c2c1=O [compound 746] |
| 17 | NC(=O)Cn1ccc2cc(Nc3cnccn3)nc(N[C@H]3C[C@@H](CO)C3)c2c1=O [compound 747] |

| IC50 [nM] | SMILES |
| --- | --- |
| 7 | CCn1ccc2cc(-c3cnc(N)nc3)nc(N[C@H]3C[C@@H](CO)C3)c2c1=O [compound 748] |
| 45 | CCn1ccc2cc(-c3cnc(N)nc3)nc(N[C@@H]3CCC(F)C3)c2c1=O (stereo partly shown) [compound 749] |
| 24 | NC(=O)Cn1ccc2cc(-c3cnc(N)nc3)nc(NC3CCOCC3)c2c1=O [compound 750] |
| 70 | N#CCn1ccc2cc(-c3cnc(N)nc3)nc(NC3CCOCC3)c2c1=O [compound 751] |
| 18 | NC(=O)Cn1ccc2cc(Nc3cnccn3)nc(NC3CCCC3)c2c1=O [compound 752] |
| 27 | N#CCn1ccc2cc(Nc3cnccn3)nc(NC3CCCC3)c2c1=O [compound 753] |
| 12 | NC(=O)Cn1ccc2cc(Nc3cnccn3)nc(NC3CCC3)c2c1=O [compound 754] |
| 9 | CC1(Cn2ccc3cc(Nc4cnccn4)nc(NC4CCC4)c3c2=O)COC1 [compound 755] |
| 117 | N#CCn1ccc2cc(-c3cnc(N)nc3)nc(NC3CCCC3)c2c1=O [compound 756] |
| 59 | NC(=O)Cn1ccc2cc(-c3cnc(N)nc3)nc(NC3CCCC3)c2c1=O [compound 757] |
| 90 | CC1(Cn2ccc3cc(-c4cnc(N)nc4)nc(NC4CC(F)(F)C4)c3c2=O)COC1 [compound 758] |
| 175 | NC(=O)Cn1ccc2cc(-c3cnc(N)nc3)nc(NC3CC(F)(F)C3)c2c1=O [compound 759] |
| 128 | CC1(Cn2ccc3cc(-c4cnc(N)nc4)nc(NC4CCCC4)c3c2=O)COC1 [compound 760] |
| 66 | Nc1ncc(-c2cc3ccn(CC4(CO)COC4)c(=O)c3c(NC3CCCC3)n2)cn1 [compound 761] |
| 22 | CC1(Cn2ccc3cc(Nc4cnccn4)nc(NC4CCCC4)c3c2=O)COC1 [compound 762] |
| 12 | O=c1c2c(NC3CCCC3)nc(Nc3cnccn3)cc2ccn1CC1(CO)COC1 [compound 763] |
| 52 | CC1(Cn2ccc3cc(Nc4cnccn4)nc(NC4CC(F)(F)C4)c3c2=O)COC1 [compound 765] |
| 7 | O=c1[nH]ccc2cc(Nc3cnccn3)nc(NC3CCCC3)c12 [compound 766] |
| 3 | O=c1[nH]ccc2cc(Nc3cnccn3)nc(NC3CCC3)c12 [compound 767] |
| 66 | CC1(Cn2ccc3cc(-c4cnc(N)nc4)nc(NC4CCOCC4)c3c2=O)COC1 [compound 769] |
| 36 | Nc1ncc(-c2cc3ccn(C4COC4)c(=O)c3c(NC3CCOCC3)n2)cn1 [compound 770] |
| 75 | CC1(Cn2ccc3cc(-c4cnc(N)nc4)nc(NC4CCC4)c3c2=O)COC1 [compound 771] |
| 25 | Nc1ncc(-c2cc3ccn(C4COC4)c(=O)c3c(NC3CCC3)n2)cn1 [compound 772] |
